Assay results published in the supplement of paper PMC13380429.
± gives the standard deviation of the averaged measurements.

Legend:
Conditions in all cases: 72 h
[1] = tested on: Calu-3; assay: cell viability relative to DMSO; higher = less toxic
[2] = tested on: U2OS; assay: as above
[3] = tested on: Vero E6; assay: as above
[4] = tested on: HepG2; assay: as above
[5] = tested on: Caco-2; assay: as above
[6] = tested on: Calu-3; assay: drug sensitivity score (DSS) for viability; higher = more toxic; extreme values may be limits of the assay
[7] = tested on: U2OS; assay: as above
[8] = tested on: Vero E6; assay: as above
[9] = tested on: HepG2; assay: as above
[10] = tested on: Caco-2; assay: as above
[11] = tested on: Calu-3; assay: relative viability EC50 (midpoint between 100% and the lowest measured viability); higher = less toxic
[12] = tested on: U2OS; assay: as above
[13] = tested on: Vero E6; assay: as above
[14] = tested on: HepG2; assay: as above
[15] = tested on: Caco-2; assay: as above

Compound O=C1c2ccccc2C(=O)C1c1ccc(Cl)cc1 [chlorindione] has a cell viability ([1]; 1 nM) of 103%, a cell viability ([1]; 10 nM) of 103% and a cell viability ([1]; 100 nM) of 99.5%. It also gave a cell viability ([1]; 1000 nM) of 106%, a cell viability ([1]; 10000 nM) of 99.7% and a cell viability ([2]; 1 nM) of 99.5%. It also gave a cell viability ([2]; 10 nM) of 93.8%, a cell viability ([2]; 100 nM) of 105% and a cell viability ([2]; 1000 nM) of 97.4%. The cell viability ([2]; 10000 nM) was 95.4%, the cell viability ([3]; 1 nM) was 95.1% and the cell viability ([3]; 10 nM) was 95.2%. It also gave a cell viability ([3]; 100 nM) of 90.3%, a cell viability ([3]; 1000 nM) of 93.6% and a cell viability ([3]; 10000 nM) of 108%. For the same compound, the cell viability ([4]; 1 nM) was 96.8%, the cell viability ([4]; 10 nM) was 108% and the cell viability ([4]; 100 nM) was 106%. For the same compound, the cell viability ([4]; 1000 nM) was 111%, the cell viability ([4]; 10000 nM) was 122% and the cell viability ([5]; 1 nM) was 94.5%. It also gave a cell viability ([5]; 10 nM) of 84.3%, a cell viability ([5]; 100 nM) of 104% and a cell viability ([5]; 1000 nM) of 95.2%. The cell viability ([5]; 10000 nM) was 106%, the drug sensitivity score [6] was 0 and the drug sensitivity score [7] was 0. The drug sensitivity score [8] was 0, the drug sensitivity score [9] was 0 and the drug sensitivity score [10] was 0. For the same compound, the “relative viability EC50” value [11] was greater than 10 µM, the “relative viability EC50” value [12] was greater than 10 µM and the “relative viability EC50” value [13] was greater than 10 µM. For the same compound, the “relative viability EC50” value [14] was greater than 10 µM and the “relative viability EC50” value [15] was greater than 10 µM.

C=Cc1c(C)c2cc3nc(c(CC(=O)O)c4[n-]c(cc5nc(cc1[n-]2)C(C)=C5CC)c(C)c4C(=O)O)[C@@H](CCC(=O)O)[C@@H]3C.[Cu+2] [chlorophyllin-copper] gave a cell viability ([1]; 1 nM) of 88.2%, a cell viability ([1]; 10 nM) of 85.4% and a cell viability ([1]; 100 nM) of 104%. It also gave a cell viability ([1]; 1000 nM) of 104%, a cell viability ([1]; 10000 nM) of 75.4% and a cell viability ([2]; 1 nM) of 94.9%. For the same compound, the cell viability ([2]; 10 nM) was 97.2%, the cell viability ([2]; 100 nM) was 98.7% and the cell viability ([2]; 1000 nM) was 91.9%. The cell viability ([2]; 10000 nM) was 88.6%, the cell viability ([3]; 1 nM) was 103% and the cell viability ([3]; 10 nM) was 97.3%. For the same compound, the cell viability ([3]; 100 nM) was 95.2%, the cell viability ([3]; 1000 nM) was 102% and the cell viability ([3]; 10000 nM) was 85.9%. For the same compound, the cell viability ([4]; 1 nM) was 89.6%, the cell viability ([4]; 10 nM) was 104% and the cell viability ([4]; 100 nM) was 82.3%. For the same compound, the cell viability ([4]; 1000 nM) was 105%, the cell viability ([4]; 10000 nM) was 88.8% and the cell viability ([5]; 1 nM) was 88.2%. It also gave a cell viability ([5]; 10 nM) of 84%, a cell viability ([5]; 100 nM) of 98.7% and a cell viability ([5]; 1000 nM) of 95.8%. The cell viability ([5]; 10000 nM) was 89.4%, the drug sensitivity score [6] was 0.7 and the drug sensitivity score [7] was 0. The drug sensitivity score [8] was 0.1, the drug sensitivity score [9] was 0 and the drug sensitivity score [10] was 0. For the same compound, the “relative viability EC50” value [11] was greater than 10 µM, the “relative viability EC50” value [12] was greater than 10 µM and the “relative viability EC50” value [13] was greater than 10 µM. The “relative viability EC50” value [14] was greater than 10 µM and the “relative viability EC50” value [15] was greater than 10 µM.

Work on Oc1ccnc2cc(Cl)ccc12 [chloroxoquinoline] yielded a cell viability ([1]; 1 nM) of 87.2%, a cell viability ([1]; 10 nM) of 95.4% and a cell viability ([1]; 100 nM) of 92.9%. For the same compound, the cell viability ([1]; 1000 nM) was 105%, the cell viability ([1]; 10000 nM) was 92.2% and the cell viability ([2]; 1 nM) was 98.5%. It also gave a cell viability ([2]; 10 nM) of 99.7%, a cell viability ([2]; 100 nM) of 95.5% and a cell viability ([2]; 1000 nM) of 103%. The cell viability ([2]; 10000 nM) was 95.5%, the cell viability ([3]; 1 nM) was 102% and the cell viability ([3]; 10 nM) was 90.9%. It also gave a cell viability ([3]; 100 nM) of 101%, a cell viability ([3]; 1000 nM) of 96.1% and a cell viability ([3]; 10000 nM) of 99.5%. It also gave a cell viability ([4]; 1 nM) of 104%, a cell viability ([4]; 10 nM) of 96.3% and a cell viability ([4]; 100 nM) of 94.6%. For the same compound, the cell viability ([4]; 1000 nM) was 92.4%, the cell viability ([4]; 10000 nM) was 105% and the cell viability ([5]; 1 nM) was 98.7%. It also gave a cell viability ([5]; 10 nM) of 96.3%, a cell viability ([5]; 100 nM) of 94.7% and a cell viability ([5]; 1000 nM) of 90.8%. It also gave a cell viability ([5]; 10000 nM) of 89.9%, a drug sensitivity score [6] of 0 and a drug sensitivity score [7] of 0. It also gave a drug sensitivity score [8] of 0, a drug sensitivity score [9] of 0 and a drug sensitivity score [10] of 0. The “relative viability EC50” value [11] was greater than 10 µM, the “relative viability EC50” value [12] was greater than 10 µM and the “relative viability EC50” value [13] was greater than 10 µM. For the same compound, the “relative viability EC50” value [14] was greater than 10 µM and the “relative viability EC50” value [15] was greater than 10 µM.

For Cc1cc(O)cc(C)c1Cl [chloroxylenol], the cell viability ([1]; 1 nM) was 104%, the cell viability ([1]; 10 nM) was 108% and the cell viability ([1]; 100 nM) was 94.7%. The cell viability ([1]; 1000 nM) was 105%, the cell viability ([1]; 10000 nM) was 95.5% and the cell viability ([2]; 1 nM) was 102%. It also gave a cell viability ([2]; 10 nM) of 106%, a cell viability ([2]; 100 nM) of 97.3% and a cell viability ([2]; 1000 nM) of 99.8%. It also gave a cell viability ([2]; 10000 nM) of 95.4%, a cell viability ([3]; 1 nM) of 101% and a cell viability ([3]; 10 nM) of 101%. The cell viability ([3]; 100 nM) was 96.9%, the cell viability ([3]; 1000 nM) was 99.1% and the cell viability ([3]; 10000 nM) was 104%. It also gave a cell viability ([4]; 1 nM) of 90.6%, a cell viability ([4]; 10 nM) of 92% and a cell viability ([4]; 100 nM) of 105%. It also gave a cell viability ([4]; 1000 nM) of 104%, a cell viability ([4]; 10000 nM) of 94% and a cell viability ([5]; 1 nM) of 99.8%. It also gave a cell viability ([5]; 10 nM) of 101%, a cell viability ([5]; 100 nM) of 93.2% and a cell viability ([5]; 1000 nM) of 92%. It also gave a cell viability ([5]; 10000 nM) of 89.3%, a drug sensitivity score [6] of 0 and a drug sensitivity score [7] of 0. The drug sensitivity score [8] was 0, the drug sensitivity score [9] was 0 and the drug sensitivity score [10] was 0.3. For the same compound, the “relative viability EC50” value [11] was greater than 10 µM, the “relative viability EC50” value [12] was greater than 10 µM and the “relative viability EC50” value [13] was greater than 10 µM. For the same compound, the “relative viability EC50” value [14] was greater than 10 µM and the “relative viability EC50” value [15] was greater than 10 µM.

In the case of CN(C)CC[C@@H](c1ccc(Cl)cc1)c1ccccn1 [chlorphenamine], the cell viability ([1]; 1 nM) is reported as 97.8 ± 1.2%, the cell viability ([1]; 10 nM) is reported as 95.2 ± 1.8% and the cell viability ([1]; 100 nM) is reported as 93.3 ± 3.8%. It also gave a cell viability ([1]; 1000 nM) of 97.7 ± 3.3%, a cell viability ([1]; 10000 nM) of 96.4 ± 14% and a cell viability ([2]; 1 nM) of 98 ± 3.7%. It also gave a cell viability ([2]; 10 nM) of 97.8 ± 0.71%, a cell viability ([2]; 100 nM) of 94.7 ± 1.7% and a cell viability ([2]; 1000 nM) of 95.2 ± 2.4%. It also gave a cell viability ([2]; 10000 nM) of 93 ± 2.6%, a cell viability ([3]; 1 nM) of 103 ± 6.3% and a cell viability ([3]; 10 nM) of 103 ± 6.7%. It also gave a cell viability ([3]; 100 nM) of 99.1 ± 1.3%, a cell viability ([3]; 1000 nM) of 95.4 ± 3.7% and a cell viability ([3]; 10000 nM) of 96.8 ± 3.2%. The cell viability ([4]; 1 nM) was 102 ± 2%, the cell viability ([4]; 10 nM) was 113.5 ± 0.71% and the cell viability ([4]; 100 nM) was 96.4 ± 2.8%. For the same compound, the cell viability ([4]; 1000 nM) was 94.7 ± 2.3%, the cell viability ([4]; 10000 nM) was 99.2 ± 10% and the cell viability ([5]; 1 nM) was 102 ± 3.8%. It also gave a cell viability ([5]; 10 nM) of 100 ± 2.9%, a cell viability ([5]; 100 nM) of 102% and a cell viability ([5]; 1000 nM) of 98.8 ± 3.8%. It also gave a cell viability ([5]; 10000 nM) of 93.05 ± 0.35%, a drug sensitivity score [6] of 0 and a drug sensitivity score [7] of 0. For the same compound, the drug sensitivity score [8] was 0, the drug sensitivity score [9] was 0 and the drug sensitivity score [10] was 0. The “relative viability EC50” value [11] was greater than 10 µM, the “relative viability EC50” value [12] was greater than 10 µM and the “relative viability EC50” value [13] was greater than 10 µM. For the same compound, the “relative viability EC50” value [14] was greater than 10 µM and the “relative viability EC50” value [15] was greater than 10 µM.
